In paper PMC12399569, “Disruption of Spike Priming in Virus Entry: Tetrandrine as a Pan‐Coronavirus Inhibitor” (MedComm, 2025):

Target: T1, SARS-CoV-2 Spike (Severe acute respiratory syndrome coronavirus 2, UniProt P0DTC2)
T1 construct: gene S
Assay: SPR (Reichert4, CM5 chip, Spike immobilised)
Format: binding

With `COc1ccc2cc1Oc1ccc(cc1)C[C@H]1c3cc(c(OC)cc3CCN1C)Oc1c(OC)c(OC)cc3c1[C@H](C2)N(C)CC3` [tetrandrine] the Kd was roughly 2230 nM.
